Measurements published in ChEMBL document CHEMBL1201862, “PubChem BioAssay data set” (2004).
The source made the active and inactive calls.

Legend:
[1] = target: T1, Serine/threonine-protein phosphatase (Homo sapiens, UniProt Q9BPW0); experiment: Counterscreen for inhibitors of PP1: fluorescence-based biochemical high throughput dose response assay to identify inhibitors of Protein Phosphatase 5 (PP5). [Related pubchem assays: 2034 (Summary (PP5 inhibitors)), 1987 (PP5 inhibitors in singlate), 2235 (PP1 inhibitors in singlate)]
T1 sequence (Q9BPW0 whole entry): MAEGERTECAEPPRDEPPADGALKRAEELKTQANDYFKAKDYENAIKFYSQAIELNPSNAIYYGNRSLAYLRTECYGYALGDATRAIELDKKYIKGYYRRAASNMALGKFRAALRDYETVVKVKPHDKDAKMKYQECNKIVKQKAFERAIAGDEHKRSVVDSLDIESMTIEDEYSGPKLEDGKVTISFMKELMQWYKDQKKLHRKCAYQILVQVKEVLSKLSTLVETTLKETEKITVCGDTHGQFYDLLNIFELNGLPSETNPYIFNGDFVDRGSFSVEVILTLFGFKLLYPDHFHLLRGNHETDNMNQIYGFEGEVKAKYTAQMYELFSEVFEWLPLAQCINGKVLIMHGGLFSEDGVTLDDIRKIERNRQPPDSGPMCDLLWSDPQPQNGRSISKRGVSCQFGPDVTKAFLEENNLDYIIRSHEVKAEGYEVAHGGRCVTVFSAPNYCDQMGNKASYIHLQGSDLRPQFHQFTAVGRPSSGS

[2] = target: Serine/threonine-protein phosphatase PP1-alpha catalytic subunit (Homo sapiens, UniProt P62136); experiment: PP1 phosphatase inhibitors, dose response, biochemical, fluorescence (AID 2403);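 also: phosphatase turnover of OMFP into fluorescent 3-O-methylfluorescein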
[3] = AlphaScreen signal interference compounds, dose response, artefact control for ARNT-TACC3 interaction inhibitor project, biochemical, luminescence, cherry-pick (AID 651705); format: functional;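 also: AlphaScreen bead proximity signal that flags compounds interfering with the detection technology; potency reflects signal decrease which marks the compound as an assay artifact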
Staphylococcus aureus = experiment: Inhibitors of Bacterial Quorum Sensing Structure Activity Relationship (SAR) Analysis: Dose Response Assay. [Related pubchem assays: 700, 527 ]; format: functional, organism-based
[4] = target: Dual specificity protein phosphatase 3 (Homo sapiens, UniProt P51452); experiment: VHR1 inhibitor Ki determination, SAR follow-up, biochemical, colorimetric (AID 2004)
[5] = target: Neuropeptides B/W receptor type 1 (Homo sapiens, UniProt P48145); experiment: Fluorescence-based dose response cell-based high throughput screening assay to identify antagonists of the G-protein coupled receptor 7 (GPR7). [Related pubchem assays: 1952 (Screening assay (GPR7 antagonists).), 1880 (Summary AID.)]; format: functional
[6] = target: T2, Melanin-concentrating hormone receptor 1 (Homo sapiens, UniProt Q99705); experiment: Fluorescence-based counterscreen for antagonists of the G-protein coupled receptor 7 (GPR7): cell-based high throughput dose response assay to identify antagonists of the melanin-concentrating hormone receptor 1 (MCHR1).; format: functional
HT-1080 = experiment: cytotoxicity in HT1080 fibrosarcoma cells, cell-based, fluorescence readout (AID 620); format: functional; conditions: Homo sapiens
[7] = target: Luciferin 4-monooxygenase (Photinus pyralis, UniProt P08659); experiment: Counter Screen for Luciferase-based Assay Positives. [Related pubchem assays: 620, 618, 411 ]
Protein Rev = Protein Rev (Human immunodeficiency virus type 1 group M subtype B (isolate WMJ22)(HIV-1), UniProt P05866); experiment: HIV-1 Rev-RRE RNA binding disruptors, dose response, biochemical, protein-RNA interaction (AID 842); set-up: species or system Human immunodeficiency virus 1
Nonstructural protein 1 = Nonstructural protein 1 (Influenza A virus, UniProt Q194T2); format: functional, Influenza A virus (A/California/07/2009(H1N1))
[8] = target: Matrix metalloproteinase-14 (Homo sapiens, UniProt P50281); experiment: Dose Response confirmation of uHTS hits for a small molecule inhibitors of MT1-MMP activation in a fluorescence assay set 1.; format: functional
[9] = target: T3, Replicative DNA helicase DnaB (Mycobacterium tuberculosis, UniProt P9WMR3); experiment: DnaB intein splicing inhibitors, dose response, biochemical, cell-free fluorescence (AID 449749); format: functional
T3 sequence (P9WMR3 whole entry): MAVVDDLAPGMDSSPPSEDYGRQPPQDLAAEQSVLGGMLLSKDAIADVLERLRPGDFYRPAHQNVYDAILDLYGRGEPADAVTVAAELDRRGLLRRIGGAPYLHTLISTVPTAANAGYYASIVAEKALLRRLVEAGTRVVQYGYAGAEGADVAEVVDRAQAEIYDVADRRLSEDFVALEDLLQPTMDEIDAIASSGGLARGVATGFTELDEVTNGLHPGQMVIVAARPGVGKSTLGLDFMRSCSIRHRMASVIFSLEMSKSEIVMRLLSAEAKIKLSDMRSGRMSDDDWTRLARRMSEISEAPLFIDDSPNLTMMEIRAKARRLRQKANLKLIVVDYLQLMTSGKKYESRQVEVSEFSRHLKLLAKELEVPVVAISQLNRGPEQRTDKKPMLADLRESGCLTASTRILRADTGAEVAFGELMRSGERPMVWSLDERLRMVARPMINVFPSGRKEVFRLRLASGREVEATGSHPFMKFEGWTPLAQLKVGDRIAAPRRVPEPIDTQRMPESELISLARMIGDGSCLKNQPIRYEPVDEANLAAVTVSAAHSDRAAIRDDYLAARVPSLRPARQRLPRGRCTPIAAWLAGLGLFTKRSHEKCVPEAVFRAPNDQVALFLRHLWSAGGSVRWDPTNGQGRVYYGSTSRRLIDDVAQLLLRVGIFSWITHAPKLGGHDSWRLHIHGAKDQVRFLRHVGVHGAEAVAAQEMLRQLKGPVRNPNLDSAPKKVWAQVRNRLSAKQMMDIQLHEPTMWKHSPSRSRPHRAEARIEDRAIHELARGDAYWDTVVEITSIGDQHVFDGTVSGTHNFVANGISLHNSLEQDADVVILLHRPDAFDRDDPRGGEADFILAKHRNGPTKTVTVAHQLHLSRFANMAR

[10] = target: T4, Heat shock 70 kDa protein 1A (Homo sapiens, UniProt P0DMV8); experiment: Hsp70 inhibitors, probe displacement, primary screen, biochemical, fluorescence polarization (AID 583)
[11] = target: T4, Heat shock 70 kDa protein 1A; experiment: Hsp70 inhibitors, biochemical, TR-FRET (AID 786)
Protein RecA = target: T5, Protein RecA (Mycobacterium tuberculosis, UniProt P9WHJ3); experiment: Fluorescence Cell-Free Homogeneous Dose Retest to Identify Inhibitors of RecA-Intein Splicing Activity. [Related pubchem assays (depositor defined):AID2097, AID2223, AID489010, AID492950]; format: functional
T5 sequence (P9WHJ3 whole entry): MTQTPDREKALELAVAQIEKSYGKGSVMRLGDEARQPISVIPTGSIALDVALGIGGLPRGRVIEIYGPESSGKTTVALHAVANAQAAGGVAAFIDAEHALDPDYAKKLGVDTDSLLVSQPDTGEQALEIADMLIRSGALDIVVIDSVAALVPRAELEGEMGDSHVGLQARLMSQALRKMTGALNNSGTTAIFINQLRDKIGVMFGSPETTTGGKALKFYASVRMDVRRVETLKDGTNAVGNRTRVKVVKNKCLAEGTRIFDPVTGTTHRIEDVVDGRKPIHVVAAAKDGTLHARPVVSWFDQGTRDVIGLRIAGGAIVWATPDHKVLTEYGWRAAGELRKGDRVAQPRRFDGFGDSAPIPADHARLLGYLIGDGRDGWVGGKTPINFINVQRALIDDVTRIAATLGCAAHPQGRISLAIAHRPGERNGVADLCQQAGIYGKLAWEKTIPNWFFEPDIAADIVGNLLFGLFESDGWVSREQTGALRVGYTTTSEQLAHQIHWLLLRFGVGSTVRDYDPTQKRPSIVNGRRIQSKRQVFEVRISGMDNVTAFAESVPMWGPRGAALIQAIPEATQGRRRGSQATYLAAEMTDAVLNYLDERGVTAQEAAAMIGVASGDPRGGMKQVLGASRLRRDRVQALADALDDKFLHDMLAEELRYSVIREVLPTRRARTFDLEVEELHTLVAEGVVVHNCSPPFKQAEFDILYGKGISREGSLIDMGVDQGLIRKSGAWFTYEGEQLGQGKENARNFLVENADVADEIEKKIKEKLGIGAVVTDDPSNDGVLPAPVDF

[12] = target: T2, Melanin-concentrating hormone receptor 1; experiment: Late-stage fluorescence-based counterscreen for antagonists of the G-protein coupled receptor 7 (GPR7): cell-based dose response assay to identify antagonists of the melanin-concentrating hormone receptor 1 (MCHR1). [Related pubchem assays (depositor defined):AID1861, AID1880, AID1952, AID2148, AID2251, AID2257, AID485339]; format: functional
[13] = target: G2/mitotic-specific cyclin-B1 (Homo sapiens, UniProt P14635); experiment: G2/M cell cycle arrest in HeLa, late-stage follow-up, mechanism study for Wee1 degradation inhibitor project, FACS, panel member Cyclin B Degradation (AID 2088)
Wee1-like protein kinase = Wee1-like protein kinase (Homo sapiens, UniProt P30291); experiment: G2/M cell cycle arrest in HeLa, late-stage follow-up, mechanism study for Wee1 degradation inhibitor project, FACS, panel member Wee1 Degradation (AID 2088)
BJ [14] = experiment: cells; format: functional, cell-based; conditions: Homo sapiens
INS1 = experiment: beta cell apoptosis inhibitors, cytokine rescue, dose response, luminescence, retest (AID 449756); format: functional, cell-based; conditions: Rattus norvegicus;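 also: cell death triggered by IL-1 beta plus TNF-alpha plus IFN-gamma mixture; protective hits raise ATP signal compared with cytokine alone wells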
HeLa = experiment: Cytotoxicity counterscreen assay for transcriptional activators of heat shock protein 70 (Hsp70). [Related pubchem assays: 1203, 1252 ]; format: functional; conditions: Homo sapiens;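 also: cells exposed to compound for 16 hours before readout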
H4 = experiment: Luminescence Cell-Based Dose Response HTS to Identify Activators of 5'UTR Stem-Loop Driven Prion Protein mRNA Translation in H4 Neuroglioblastoma Cells. [Related pubchem assays: 1829 (Project Summary), 1814 (Primary HTS)]; format: functional; conditions: Homo sapiens
BJ [15] = experiment: cytotoxicity toward Ras-transformed BJeLR fibroblasts, dose response, cell-based, alamar blue fluorescence, cherrypicked samples (AID 2631); format: functional; conditions: Homo sapiens;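 also: confirmatory dose-response assay in RAS-dependent BJ fibroblasts engineered with TERT, LT and ST, with cytotoxicity read by fluorescence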
[16] = target: Heat shock protein HSP 90-alpha (Homo sapiens, UniProt P07900); format: functional, organism-based
[17] = Luminescence Cell-Based Dose Response HTS to Identify Activators of Luciferase Translation or Activity in H4 […] Cells. [Related pubchem assays: 1829 (Project Summary), 1814 (Primary HTS)]; format: functional
[18] = Luminescence Cell-Based Dose Confirmation HTS to Identify Activators of 5'UTR Stem-Loop Driven Alpha-Synuclein mRNA Translation in H4 Neuroglioblastoma Cells. [Related pubchem assays: 1829 (Project Summary), 1814 (Primary HTS)]; format: functional
[19] = cytotoxicity toward DRD oncogenic fibroblasts, dose response, cell-based, non-viral oncogenic, luminescence (AID 1934); format: functional; conditions: Homo sapiens
BJ [20] = experiment: cytotoxicity toward BJ-TERT-LT-ST fibroblasts, dose response, cell-based, RAS-independent, luminescence (AID 1935); format: functional; conditions: Homo sapiens;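 also: BJ fibroblasts immortalized with TERT plus LT and ST oncogenes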
[21] = cytotoxicity in HEK-293T cells, dose response, cytotoxicity control for TCR NF-kB inhibitor project, luminescence, T-cell screen hits (AID 489026); format: functional, cell-based;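 also: cells exposed to compound about 14 hours before the viability readout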
BJ [22] = experiment: cytotoxicity toward BJ-TERT fibroblasts, dose response, cell-based, RAS-independent, luminescence (AID 1933); format: functional; conditions: Homo sapiens

T4 sequence (P0DMV8 whole entry): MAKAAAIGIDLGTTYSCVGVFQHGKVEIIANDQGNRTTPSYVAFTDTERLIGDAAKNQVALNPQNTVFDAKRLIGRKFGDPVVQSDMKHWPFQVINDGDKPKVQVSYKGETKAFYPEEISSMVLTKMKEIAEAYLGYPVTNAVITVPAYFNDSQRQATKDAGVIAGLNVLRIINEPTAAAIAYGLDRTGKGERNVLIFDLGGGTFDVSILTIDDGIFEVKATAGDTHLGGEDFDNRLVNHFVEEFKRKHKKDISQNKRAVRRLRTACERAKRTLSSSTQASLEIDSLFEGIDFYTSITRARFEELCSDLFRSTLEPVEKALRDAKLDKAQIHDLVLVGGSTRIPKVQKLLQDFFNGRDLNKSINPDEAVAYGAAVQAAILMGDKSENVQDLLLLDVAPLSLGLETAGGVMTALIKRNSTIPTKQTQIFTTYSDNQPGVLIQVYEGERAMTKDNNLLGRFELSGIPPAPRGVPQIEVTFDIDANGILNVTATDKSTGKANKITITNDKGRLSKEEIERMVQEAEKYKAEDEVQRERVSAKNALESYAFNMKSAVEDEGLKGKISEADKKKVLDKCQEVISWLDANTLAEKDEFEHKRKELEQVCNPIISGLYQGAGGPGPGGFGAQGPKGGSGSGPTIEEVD
T2 sequence (Q99705 whole entry): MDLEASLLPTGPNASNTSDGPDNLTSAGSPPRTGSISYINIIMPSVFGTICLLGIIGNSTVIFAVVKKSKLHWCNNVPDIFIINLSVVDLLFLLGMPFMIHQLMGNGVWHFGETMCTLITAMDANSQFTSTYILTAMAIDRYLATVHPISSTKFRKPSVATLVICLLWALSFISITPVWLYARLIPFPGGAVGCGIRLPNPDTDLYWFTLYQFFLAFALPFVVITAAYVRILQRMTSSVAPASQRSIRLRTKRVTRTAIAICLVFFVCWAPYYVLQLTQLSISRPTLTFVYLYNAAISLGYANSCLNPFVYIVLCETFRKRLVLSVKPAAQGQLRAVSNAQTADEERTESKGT
Nonstructural protein 1, sequence (Q194T2 whole entry): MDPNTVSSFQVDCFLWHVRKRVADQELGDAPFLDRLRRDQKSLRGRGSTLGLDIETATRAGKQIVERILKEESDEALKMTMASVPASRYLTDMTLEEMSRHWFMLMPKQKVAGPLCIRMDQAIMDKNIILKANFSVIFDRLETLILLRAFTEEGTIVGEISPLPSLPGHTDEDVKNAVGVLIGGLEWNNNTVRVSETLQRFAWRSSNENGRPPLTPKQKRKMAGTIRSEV
Protein Rev, sequence (P05866 whole entry): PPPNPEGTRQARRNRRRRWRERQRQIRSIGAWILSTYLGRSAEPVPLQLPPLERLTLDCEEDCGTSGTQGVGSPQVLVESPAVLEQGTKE
G2/mitotic-specific cyclin-B1, sequence (P14635 whole entry): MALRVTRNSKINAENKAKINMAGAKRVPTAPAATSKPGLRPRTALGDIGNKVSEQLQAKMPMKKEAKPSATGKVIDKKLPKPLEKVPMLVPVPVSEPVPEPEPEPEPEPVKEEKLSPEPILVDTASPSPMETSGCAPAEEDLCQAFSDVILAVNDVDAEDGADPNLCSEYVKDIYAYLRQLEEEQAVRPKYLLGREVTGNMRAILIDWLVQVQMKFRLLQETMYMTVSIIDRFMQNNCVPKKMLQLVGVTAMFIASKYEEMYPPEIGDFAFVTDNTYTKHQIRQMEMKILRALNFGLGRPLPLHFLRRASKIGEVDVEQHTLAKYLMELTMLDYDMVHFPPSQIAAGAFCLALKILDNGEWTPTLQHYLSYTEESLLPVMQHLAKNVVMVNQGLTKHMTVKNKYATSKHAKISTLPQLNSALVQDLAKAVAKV
Luciferin 4-monooxygenase, sequence (P08659 whole entry): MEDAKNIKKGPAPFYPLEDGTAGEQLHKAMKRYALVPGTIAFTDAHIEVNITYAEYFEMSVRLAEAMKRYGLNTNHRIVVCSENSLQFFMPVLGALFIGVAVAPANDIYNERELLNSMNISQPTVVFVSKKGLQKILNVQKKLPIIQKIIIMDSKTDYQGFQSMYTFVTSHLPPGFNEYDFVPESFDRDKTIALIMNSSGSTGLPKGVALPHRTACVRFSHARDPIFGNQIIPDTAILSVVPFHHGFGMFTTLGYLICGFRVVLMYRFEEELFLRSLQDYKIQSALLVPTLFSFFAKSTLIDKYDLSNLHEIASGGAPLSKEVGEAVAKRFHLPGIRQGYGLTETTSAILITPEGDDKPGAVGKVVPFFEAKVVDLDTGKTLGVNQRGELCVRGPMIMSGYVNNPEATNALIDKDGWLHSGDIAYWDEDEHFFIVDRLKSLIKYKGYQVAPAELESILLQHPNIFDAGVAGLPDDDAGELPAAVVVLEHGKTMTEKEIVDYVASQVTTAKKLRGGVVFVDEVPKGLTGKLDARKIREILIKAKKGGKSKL
Wee1-like protein kinase, sequence (P30291 whole entry): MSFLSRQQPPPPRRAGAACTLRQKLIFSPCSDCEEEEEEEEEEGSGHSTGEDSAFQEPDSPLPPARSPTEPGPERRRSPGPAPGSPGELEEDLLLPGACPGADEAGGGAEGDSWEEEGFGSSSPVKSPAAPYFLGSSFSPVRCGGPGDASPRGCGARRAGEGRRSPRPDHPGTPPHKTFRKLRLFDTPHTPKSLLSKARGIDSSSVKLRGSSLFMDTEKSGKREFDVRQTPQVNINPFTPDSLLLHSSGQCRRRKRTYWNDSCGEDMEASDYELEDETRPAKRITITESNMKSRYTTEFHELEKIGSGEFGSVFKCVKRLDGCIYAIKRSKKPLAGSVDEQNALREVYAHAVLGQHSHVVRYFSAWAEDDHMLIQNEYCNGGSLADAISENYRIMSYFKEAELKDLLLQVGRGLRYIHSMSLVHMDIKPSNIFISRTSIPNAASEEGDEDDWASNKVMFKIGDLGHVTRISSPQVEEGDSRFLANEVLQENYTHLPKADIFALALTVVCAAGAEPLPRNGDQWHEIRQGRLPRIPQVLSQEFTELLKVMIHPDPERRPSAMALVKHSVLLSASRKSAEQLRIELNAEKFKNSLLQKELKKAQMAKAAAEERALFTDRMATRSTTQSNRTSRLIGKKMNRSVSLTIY
Serine/threonine-protein phosphatase PP1-alpha catalytic subunit, sequence (P62136 whole entry): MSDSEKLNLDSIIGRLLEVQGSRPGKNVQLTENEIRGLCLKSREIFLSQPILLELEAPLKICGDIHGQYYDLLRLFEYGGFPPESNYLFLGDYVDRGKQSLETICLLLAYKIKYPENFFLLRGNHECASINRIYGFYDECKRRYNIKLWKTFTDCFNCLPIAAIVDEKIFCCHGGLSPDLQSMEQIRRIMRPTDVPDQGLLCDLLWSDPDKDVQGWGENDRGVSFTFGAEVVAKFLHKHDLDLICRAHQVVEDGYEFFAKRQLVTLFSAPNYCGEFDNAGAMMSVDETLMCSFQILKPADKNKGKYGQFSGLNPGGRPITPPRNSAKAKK
Neuropeptides B/W receptor type 1, sequence (P48145 whole entry): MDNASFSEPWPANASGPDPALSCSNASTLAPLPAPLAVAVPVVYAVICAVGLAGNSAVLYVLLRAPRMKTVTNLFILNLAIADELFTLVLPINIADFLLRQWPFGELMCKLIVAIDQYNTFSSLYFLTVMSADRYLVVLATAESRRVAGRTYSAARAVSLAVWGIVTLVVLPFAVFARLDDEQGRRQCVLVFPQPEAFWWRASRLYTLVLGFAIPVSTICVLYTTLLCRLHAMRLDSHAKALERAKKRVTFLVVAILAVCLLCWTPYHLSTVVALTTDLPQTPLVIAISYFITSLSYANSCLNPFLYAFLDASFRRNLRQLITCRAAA
Dual specificity protein phosphatase 3, sequence (P51452 whole entry): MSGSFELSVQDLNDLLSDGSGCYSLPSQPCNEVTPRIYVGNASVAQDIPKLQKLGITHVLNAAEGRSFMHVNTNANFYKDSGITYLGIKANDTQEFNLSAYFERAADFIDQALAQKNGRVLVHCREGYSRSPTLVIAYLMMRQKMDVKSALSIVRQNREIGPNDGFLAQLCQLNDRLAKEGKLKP

Compound: COc1cc(NS(=O)(=O)c2ccc(Nc3nc(-c4ccccn4)cs3)cc2)nc(OC)n1
- IC50 [1]: > 67 µM (not active)
- IC50 [2]: 3.63 µM (active)
- AC50 [3]: 88.3 µM (active)

Compound: CC1CCN(C(C(=O)Nc2ccc3c(c2)OCO3)c2ccccc2)CC1 (stereo unspecified)
- IC50 (Staphylococcus aureus): 0.976 µM (active)

Compound: O=C(O)c1cccc2c1NC(c1ccc(Cl)cc1)C1CC=CC21 (stereo unspecified)
- Ki [4]: 119 µM (inactive)

Compound: O=C(Oc1ccc(C(=S)N2CCOCC2)cc1)c1ccccc1
- IC50 [5]: > 43.8 µM (not active)
- IC50 [6]: > 14.6 µM (not active)

Compound: c1ccc(-c2ccc(-c3nc(-c4ccncc4)no3)cc2)cc1
- EC50 (HT-1080): > 50 µM (not active)
- EC50 [7]: 4.37 µM (active)

Compound: CC1=NN(c2ccccc2)C(=O)C1N=Nc1ccc(N)cc1 (stereo unspecified)
- IC50 (Protein Rev): > 79.4 µM (not active)
- IC50 (Nonstructural protein 1): 10.5 µM (active)
- IC50 [8]: > 80 µM (inactive)

Compound: CC(=O)N1CCC2(CC1)C(C#N)=C(N)Oc1[nH]nc(C)c12
- AC50 [9]: 8.21 µM (active)
- IC50 [10]: > 100 µM (not active)
- IC50 [11]: > 100 µM (not active)
- EC50 (Protein RecA): 1.36 µM (active)

Compound: COc1ccc(Oc2c(Cl)cnn(-c3cc(Cl)cc(Cl)c3)c2=O)cc1
- IC50 [12]: 1.1 µM (active)

Compound: Cc1cc(O)nc(-n2nc(C)cc2NC(=O)c2ccccc2Br)n1
- EC50 [13]: > 49.7 µM (inactive)
- EC50 (Wee1-like protein kinase): > 49.7 µM (inactive)

Compound: CC1C/C(=C/c2ccncc2)C(=O)/C(=C/c2ccncc2)C1 (stereo unspecified)
- EC50 (BJ [14]): 1.01 µM (inconclusive)
- AC50 (INS1): 3.66 µM (active)
- CC50 (HeLa): > 1.22 µM (not active)
- EC50 (H4): > 120 µM (not active)
- EC50 (BJ [15]): 0.291 µM (active)
- AC50 [16]: 4.23 µM (active)
- EC50 [17]: > 60 µM (not active)
- EC50 [18]: > 120 µM (not active)
- EC50 [19]: 2.23 µM (inconclusive)
- EC50 (BJ [20]): 2.3 µM (inconclusive)
- IC50 [21]: 54 µM (inactive)
- EC50 (BJ [22]): 1.1 µM (inconclusive)
